From article PMC9862186 (International Journal of Molecular Sciences, 2023)

Legend:
[1] = in vivo; details: Wistar, rat
Experimental: Each type of formulation was administered to a group of four rats.
In particular, 4.2 mL of EU-CD formulation were administered to rats (500 mg/kg dose).
In particular, 320 μL of EU-SL formulation were administered to rats (500 mg/kg dose).
Free cinnamaldehyde (100 mg) was orally administered by gavage to rats kept fasting since 24 h. In particular, 95 μL of cinnamaldehyde (density = 1.05 g/mL) were dissolved in 905 μL of corn oil and administered to rats (400 mg/kg dose).
The solid AC-GN formulation (14% w/w cinnamaldehyde) was mixed with palatable food in order to induce their oral intake by the rats kept fasting since 24 h. In particular, the rats assumed a dose of 100 mg of cinnamaldehyde (400 mg/kg) contained in 714 mg of AC-GN.
After the administrations, blood (100 μL) and CSF samples (50 μL) were serially collected at fixed time points from each rat and treated as described above in order to quantify the compounds.
In particular, all the AUC values referred to the bloodstream were calculated by the trapezoidal method within the last time point detected, and the remaining area was obtained as the ratio between the compound concentration detected at the last time point and the elimination constant (kel), which was obtained from the slope of the semilogarithmic plots (−slope × 2.3). The clearance (Cl) and distribution volume (Vd) values were calculated according to the non-compartmental model as the ratios “dose/AUC” and “Cl/kel”, respectively, where kel is the elimination constant obtained by the slope of semilogarithmic plot.

[2] = test system: rats; details: cited from earlier work

In the case of `C=CCc1ccc(O)c(OC)c1` [Eugenol], the “Tmax: time of Cmax in the bloodstream” value [1] is given as 10 min, the bioavailability ([1]; po, F: absolute bioavailability, oral versus iv AUC normalized to dose) is given as 4% and the “oral LD50” value ([2]; oral) is given as “about 2 g/kg”. For the same molecule, the “intravenous doses inducing anesthetic effects without relevant side effects” value ([2]; rat, in vivo, iv) was “up to 60 mg/kg”.
